Test results taken from the supplement of paper PMC11061612.

What was measured:
Test in all cases: combination Emax (second highest fraction inhibited in the dose matrix, 72 h); higher = more inhibition; extreme values may be limits of the assay
[1] = test system: UACC-257 (Melanoma)
Method in brief: (§1)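 Cell lines in DMEM/F12 or RPMI with 10% FBS were plated in 1536-well plates, held 24 hours at 37°C, 5% CO2, then given two-drug dose matrices for 72 hours (DMSO typically 0.2%). Viability was read by CellTiter-Glo 2.0 luminescence and scaled as inhibition from 0 (vehicle wells) to 1 (blank wells). Combination Emax is the second-highest inhibition in the matrix; Bliss excess is observed combination effect minus expected EA + EB − EA·EB, EA and EB being single-agent effects.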

[2] = test system: ES6 (Ewing's Sarcoma)
Method in brief: as §1

[3] = test system: MDA-MB-415 (Breast Carcinoma)
Method in brief: as §1

[4] = test system: NB1 (Neuroblastoma)
Method in brief: as §1

[5] = test system: OVCAR-3 (Ovarian Carcinoma)
Method in brief: as §1

[6] = test system: CL-11 (Colorectal Carcinoma)
Method in brief: as §1

[7] = test system: SCC-4 (Oral Cavity Carcinoma)
Method in brief: as §1

[8] = test system: WM35 (Melanoma)
Method in brief: as §1

[9] = test system: CPC-N (Small Cell Lung Carcinoma)
Method in brief: as §1

[10] = test system: KP-4 (Pancreatic Carcinoma)
Method in brief: as §1

[11] = test system: AM-38 (Glioblastoma)
Method in brief: as §1

[12] = test system: SNU-C2B (Colorectal Carcinoma)
Method in brief: as §1

[13] = test system: MS-1 (Small Cell Lung Carcinoma)
Method in brief: as §1

[14] = test system: SK-CO-1 (Colorectal Carcinoma)
Method in brief: as §1

[15] = test system: C-33-A (Cervical Carcinoma)
Method in brief: as §1

[16] = test system: BxPC-3 (Pancreatic Carcinoma)
Method in brief: as §1

[17] = test system: NCI-H2373 (Mesothelioma)
Method in brief: as §1

[18] = test system: NCI-H1963 (Small Cell Lung Carcinoma)
Method in brief: as §1

[19] = test system: RCC-JW (Kidney Carcinoma)
Method in brief: as §1

| SMILES | combination Emax [1] | combination Emax [2] | combination Emax [3] | combination Emax [4] | combination Emax [5] | combination Emax [6] | combination Emax [7] | combination Emax [8] | combination Emax [9] | combination Emax [10] | combination Emax [11] | combination Emax [12] | combination Emax [13] | combination Emax [14] | combination Emax [15] | combination Emax [16] | combination Emax [17] | combination Emax [18] | combination Emax [19] |
| --- | --- | --- | --- | --- | --- | --- | --- | --- | --- | --- | --- | --- | --- | --- | --- | --- | --- | --- | --- |
| COc1cc2ncnc(Nc3ccc(F)c(Cl)c3)c2cc1OCCCN1CCOCC1 [Gefitinib] + CC(C)n1c(=O)n(C)c2cnc3cc(F)c(-c4ccc(OCCCN5CCCCC5)nc4)cc3c21 [AZD1390] (first compound max 10 µM, 7x7, partner max 0.3 µM) | 0.053 | 0.194 | 0.191 | 0.0869 | 0.0817 | 0.0239 | 0.275 | 0.0767 | 0.0984 | 0.121 | 0.123 | 0.246 | 0.273 | 0.241 | 0.485 | 0.285 | 0.119 | 0.062 | 0.226 |
| NC1(C(=O)N[C@@H](CCO)c2ccc(Cl)cc2)CCN(c2ncnc3[nH]ccc23)CC1 [Capivasertib] + CC(=O)c1c(C)c2cnc(Nc3ccc(N4CCNCC4)cn3)nc2n(C2CCCC2)c1=O [Palbociclib] (first compound max 10 µM, 7x7, partner max 10 µM) | 0.276 | 0.46 | 0.769 | 0.697 | 0.379 | 0.358 | 0.271 | 0.263 | 0.382 | 0.595 | 0.473 | 0.424 | 0.266 | 0.419 | 0.679 | 0.23 | 0.538 | 0.477 | 0.449 |
| C[C@@H](c1ccc2nccn2c1)n1nnc2ncc(-c3cnn(C)c3)nc21 [Savolitinib] + CC1(C)CCC(CN2CCN(c3ccc(C(=O)NS(=O)(=O)c4ccc(NCC5CCOCC5)c([N+](=O)[O-])c4)c(Oc4cnc5[nH]ccc5c4)c3)CC2)=C(c2ccc(Cl)cc2)C1 [Venetoclax] (first compound max 1 µM, 7x7, partner max 1 µM) | 0.104 | 0.179 | 0.261 | 0.0333 | 0.0969 | 0.09 | 0.101 | 0.162 | 0.203 | 0.453 | 0.0558 | 0.0589 | 0.155 | 0.0828 | 0.0882 | 0.216 | 0.138 | 0.422 | 0.124 |
| CC(=O)c1c(C)c2cnc(Nc3ccc(N4CCNCC4)cn3)nc2n(C2CCCC2)c1=O [Palbociclib] + Cc1c2c(nn1C)CSCc1cc(n(C)n1)CSc1cc(c3ccccc3c1)OCCCc1c(C(=O)O)n(C)c3c-2c(Cl)ccc13 [AZD5991] (first compound max 10 µM, 7x7, partner max 1 µM) | 0.21 | 0.412 | 0.444 | 0.529 | 0.167 | 0.309 | 0.202 | 0.208 | 0.264 | 0.412 | 0.405 | 0.365 | 0.609 | 0.455 | 0.467 | 0.301 | 0.328 | 0.534 | 0.255 |
| Cn1cnc2c(F)c(Nc3ccc(Br)cc3Cl)c(C(=O)NOCCO)cc21 [Selumetinib] + CC(C)n1c(=O)n(C)c2cnc3cc(F)c(-c4ccc(OCCCN5CCCCC5)nc4)cc3c21 [AZD1390] (first compound max 10 µM, 7x7, partner max 0.3 µM) | 0.568 | 0.147 | 0.222 | 0.127 | 0.048 | 0.691 | 0.278 | 0.65 | 0.0753 | 0.283 | 0.437 | 0.29 | 0.117 | 0.776 | 0.264 | 0.4 | 0.298 | 0.303 | 0.0923 |
| CS(=O)(=O)CCNCc1ccc(-c2ccc3ncnc(Nc4ccc(OCc5cccc(F)c5)c(Cl)c4)c3c2)o1 [Lapatinib] + C[C@@H](Oc1cc(-c2cnn(C3CCNCC3)c2)cnc1N)c1c(Cl)ccc(F)c1Cl [Crizotinib] (first compound max 10 µM, 7x7, partner max 10 µM) | 0.947 | 0.953 | 0.633 | 0.965 | 0.548 | 0.928 | 0.913 | 0.88 | 0.845 | 0.761 | 0.91 | 0.753 | 0.941 | 0.94 | 0.921 | 0.946 | 0.559 | 0.966 | 0.976 |
| COc1nnc2ccc(N3CCC(c4ccc(OCCN5CCN(C)C(=O)[C@H]5C)cc4)CC3)nn12 [AZD5153] + C=CCn1c(=O)c2cnc(Nc3ccc(N4CCN(C)CC4)cc3)nc2n1-c1cccc(C(C)(C)O)n1 [AZD1775] (first compound max 1 µM, partner max 1 µM) | 0.359 | 0.516 | 0.44 | 0.842 | 0.852 | 0.809 | 0.568 | 0.467 | 0.918 | 0.684 | 0.353 | 0.584 | 0.964 | 0.56 | 0.956 | 0.529 | 0.399 | 0.952 | 0.382 |
| COc1nnc2ccc(N3CCC(c4ccc(OCCN5CCN(C)C(=O)[C@H]5C)cc4)CC3)nn12 [AZD5153] + Cn1cnc2c(F)c(Nc3ccc(Br)cc3Cl)c(C(=O)NOCCO)cc21 [Selumetinib] (first compound max 1 µM, 7x7, partner max 10 µM) | 0.825 | 0.297 | 0.429 | 0.445 | 0.54 | 0.967 | 0.509 | 0.968 | 0.451 | 0.597 | 0.659 | 0.573 | 0.817 | 0.804 | 0.573 | 0.616 | 0.439 | 0.757 | 0.3 |
| CC(=O)c1c(C)c2cnc(Nc3ccc(N4CCNCC4)cn3)nc2n(C2CCCC2)c1=O [Palbociclib] + Cn1cnc2c(F)c(Nc3ccc(Br)cc3Cl)c(C(=O)NOCCO)cc21 [Selumetinib] (first compound max 10 µM, 7x7, partner max 10 µM) | 0.647 | 0.349 | 0.254 | 0.376 | 0.185 | 0.864 | 0.377 | 0.718 | 0.14 | 0.509 | 0.568 | 0.303 | 0.416 | 0.858 | 0.457 | 0.414 | 0.354 | 0.456 | 0.239 |
| NC1(C(=O)N[C@@H](CCO)c2ccc(Cl)cc2)CCN(c2ncnc3[nH]ccc23)CC1 [Capivasertib] + CCN(CCO)CCCOc1ccc2c(Nc3cc(CC(=O)Nc4cccc(F)c4)[nH]n3)ncnc2c1 [AZD2811] (first compound max 10 µM, 7x7, partner max 1 µM) | 0.394 | 0.418 | 0.837 | 0.79 | 0.344 | 0.272 | 0.333 | 0.328 | 0.781 | 0.682 | 0.285 | 0.329 | 0.386 | 0.64 | 0.712 | 0.241 | 0.491 | 0.93 | 0.358 |
| NC1(C(=O)N[C@@H](CCO)c2ccc(Cl)cc2)CCN(c2ncnc3[nH]ccc23)CC1 [Capivasertib] + COc1nnc2ccc(N3CCC(c4ccc(OCCN5CCN(C)C(=O)[C@H]5C)cc4)CC3)nn12 [AZD5153] (first compound max 10 µM, 7x7, partner max 1 µM) | 0.355 | 0.518 | 0.9 | 0.885 | 0.526 | 0.688 | 0.678 | 0.538 | 0.811 | 0.58 | 0.448 | 0.54 | 0.931 | 0.438 | 0.779 | 0.399 | 0.591 | 0.767 | 0.601 |
| Cn1cnc2c(F)c(Nc3ccc(Br)cc3Cl)c(C(=O)NOCCO)cc21 [Selumetinib] + CCN(CCO)CCCOc1ccc2c(Nc3cc(CC(=O)Nc4cccc(F)c4)[nH]n3)ncnc2c1 [AZD2811] (first compound max 10 µM, 7x7, partner max 1 µM) | 0.68 | 0.15 | 0.248 | 0.566 | 0.182 | 0.709 | 0.415 | 0.664 | 0.717 | 0.678 | 0.542 | 0.335 | 0.179 | 0.878 | 0.324 | 0.407 | 0.284 | 0.902 | 0.132 |
| C[C@@H](c1ccc2nccn2c1)n1nnc2ncc(-c3cnn(C)c3)nc21 [Savolitinib] + Cc1c2c(nn1C)CSCc1cc(n(C)n1)CSc1cc(c3ccccc3c1)OCCCc1c(C(=O)O)n(C)c3c-2c(Cl)ccc13 [AZD5991] (first compound max 1 µM, 7x7, partner max 1 µM) | 0.151 | 0.174 | 0.344 | 0.175 | 0.195 | 0.132 | 0.183 | 0.154 | 0.263 | 0.435 | 0.244 | 0.187 | 0.26 | 0.114 | 0.114 | 0.136 | 0.133 | 0.192 | 0.106 |
| COc1nnc2ccc(N3CCC(c4ccc(OCCN5CCN(C)C(=O)[C@H]5C)cc4)CC3)nn12 [AZD5153] + Cc1c2c(nn1C)CSCc1cc(n(C)n1)CSc1cc(c3ccccc3c1)OCCCc1c(C(=O)O)n(C)c3c-2c(Cl)ccc13 [AZD5991] (first compound max 1 µM, 7x7, partner max 1 µM) | 0.501 | 0.45 | 0.693 | 0.52 | 0.632 | 0.768 | 0.775 | 0.798 | 0.751 | 0.76 | 0.295 | 0.568 | 0.961 | 0.403 | 0.644 | 0.463 | 0.381 | 0.89 | 0.3 |
